System: FrsC
Details: 0.5 mM NADPH, pH 6, 30 °C, 1 μM FrsC, tag removed

O=C(O)C(=O)Cc1ccccc1 [phenylpyruvic acid]
Km: 1370 ± 410 µM
